# Measured values as given in patent US20220281848A1, “PYRAZOLE-SUBSTITUTED PYRROLIDINONES AS HERBICIDES” (FMC Corporation, priority 2019, published 2022).
# Assays:
# Format in all cases: in vivo
# [1] = system: redroot pigweed (Amaranthus retroflexus, AMARE); test: Test A post-emergence, redroot pigweed; conditions: after 13 d
# In short: (§1)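 Post-emergence spray at 8 d after sowing; doses 15.625, 62.5 or 250 g/ha in acetone/water 50:50 + 0.5% Tween 20. Glasshouse 24/16 °C, 14 h light, 65% RH, watered twice daily. Visual damage rating 0–100 at 13 d.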
# [2] = system: corn (Zea mays, ZEAMX); test: Test A pre-emergence, corn; conditions: after 13 d
# In short: (§2)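 After sowing in pots and a single day of glasshouse cultivation, the soil was treated with an aqueous spray of the compound (acetone/water 50:50, 0.5% Tween 20) giving 15.625, 62.5 or 250 g/ha. Evaluation after 13 d used a scale where 0 meant no damage and 100 total damage.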
# [3] = system: wheat; test: Test D pre-emergence, wheat seed treated with a herbicide safener; conditions: 100=total damage, 0=no damage
# In short: (§3)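 Safener-seed-treated maize and wheat were sprayed with an emulsifiable formulation diluted in 0.2% v/v adjuvant solution, one day after sowing (pre-emergence) or after about 12 days (post-emergence). Plants were grown in a glasshouse at 24/18 or 20/16 °C with 16 h light; damage was scored 0–100 at 20 DAA (pre) or 15 d (post).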
# [4] = system: redroot pigweed (Amaranthus retroflexus, AMARE); test: Test A pre-emergence, redroot pigweed; conditions: after 13 d
# In short: as §2
# [5] = system: giant foxtail (Setaria faberi, SETFA); test: Test A post-emergence, giant foxtail; conditions: after 13 d
# In short: as §1
# [6] = system: wheat; test: Test D post-emergence, wheat seed treated with a herbicide safener; conditions: "Cereals" Postemergent
# Method: A formulation containing 50 g/L of the test chemical was prepared by dissolving the active ingredient in a mixture of organic solvents and emulsifier, details of which are provided in the table. This formulation was then mixed with a small, variable amount of acetone to aid dissolution, before addition of a 0.2% v/v aqueous solution of an adjuvant, as the aqueous diluent, to form an aqueous spray solution which contains a predetermined concentration of the active ingredient.
# This aqueous spray solution was then sprayed onto plants including maize and wheat that had been seed treated with a herbicide safener, after one day's cultivation (for pre-emergence) or after about 12 days' cultivation (for post-emergence). The plants were grown from seeds sown in standard soil, placed in a glasshouse under controlled conditions (at 24/18° C. or 20/16° C., day/night; 16 h light; 65% humidity). After spray application the plants were then grown in a glasshouse under the same conditions and watered twice daily. After 15 d for post-emergence and 20 DAA for pre-emergence the test was evaluated (100=total damage to plant; 0=no damage to plant).
# [7] = system: ivy-leaved morning glory (Ipomoea hederacea, IPOHE); test: Test A post-emergence, ivy-leaved morning glory; conditions: after 13 d
# In short: as §1
# [8] = system: velvetleaf (Abutilon theophrasti, ABUTH); test: Test A post-emergence, velvetleaf; conditions: after 13 d
# In short: as §1
# [9] = system: barnyardgrass (Echinochloa crus-galli, ECHCG); test: Test A post-emergence, barnyardgrass; conditions: after 13 d
# In short: as §1
# [10] = system: maize; test: Test D pre-emergence, maize seed treated with a herbicide safener; conditions: ZEAMX, preemergent, 20 DAA
# In short: as §3
# [11] = system: giant foxtail (Setaria faberi, SETFA); test: Test A pre-emergence, giant foxtail; conditions: after 13 d
# In short: as §2
# [12] = Rates 130, evaluated after 15 d
# [13] = Rates 250, evaluated after 15 d
# [14] = Rates 500, evaluated after 15 d
SMILES,damage to plant (100=total damage; 0=no damage) AMARE ([1]; Post-Emergence at 15.625 g/ha),damage to plant (100=total damage; 0=no damage) AMARE ([1]; Post-Emergence at 62.5 g/ha),damage to plant (100=total damage; 0=no damage) AMARE ([1]; Post-Emergence at 250 g/ha),damage to plant (100=total damage; 0=no damage) ZEAMX ([2]; Pre-Emergence at 15.625 g/ha),damage to plant (100=total damage; 0=no damage) ZEAMX ([2]; Pre-Emergence at 62.5 g/ha),damage to plant (100=total damage; 0=no damage) ZEAMX ([2]; Pre-Emergence at 250 g/ha),"damage to plant, TRZAW ([3]; rate 15, 20 DAA)","damage to plant, TRZAW ([3]; rate 30, 20 DAA)","damage to plant, TRZAW ([3]; rate 60, 20 DAA)","damage to plant, TRZAW ([3]; rate 130, 20 DAA)","damage to plant, TRZAW ([3]; rate 250, 20 DAA)","damage to plant, TRZAW ([3]; rate 500, 20 DAA)",damage to plant (100=total damage; 0=no damage) AMARE ([4]; Pre-Emergence at 15.625 g/ha),damage to plant (100=total damage; 0=no damage) AMARE ([4]; Pre-Emergence at 62.5 g/ha),damage to plant (100=total damage; 0=no damage) AMARE ([4]; Pre-Emergence at 250 g/ha),damage to plant (100=total damage; 0=no damage) SETFA ([5]; Post-Emergence at 15.625 g/ha),damage to plant (100=total damage; 0=no damage) SETFA ([5]; Post-Emergence at 62.5 g/ha),damage to plant (100=total damage; 0=no damage) SETFA ([5]; Post-Emergence at 250 g/ha),"TRZAW damage rating (100=total damage to plant; 0=no damage to plant) [6, 12]","TRZAW damage rating (100=total damage to plant; 0=no damage to plant) [6, 13]",further results
CN1CC(c2cc(C(F)(F)F)n(C)n2)C(C(=O)Nc2ccc(F)nc2F)C1=O (racemic) [Compound 22],0,0,0,0,20,40,0,0,0,0,0,10,0,10,20,50,70,80,0,0,"TRZAW damage rating (100=total damage to plant; 0=no damage to plant) [6, 14]: 10; damage to plant (100=total damage; 0=no damage) IPOHE ([7]; Post-Emergence at 15.625 g/ha): 0; damage to plant (100=total damage; 0=no damage) IPOHE ([7]; Post-Emergence at 62.5 g/ha): 10; damage to plant (100=total damage; 0=no damage) IPOHE ([7]; Post-Emergence at 250 g/ha): 30; damage to plant (100=total damage; 0=no damage) ABUTH ([8]; Post-Emergence at 15.625 g/ha): 0; damage to plant (100=total damage; 0=no damage) ABUTH ([8]; Post-Emergence at 62.5 g/ha): 0; damage to plant (100=total damage; 0=no damage) ABUTH ([8]; Post-Emergence at 250 g/ha): 0; damage to plant (100=total damage; 0=no damage) ECHCG ([9]; Post-Emergence at 15.625 g/ha): 60; damage to plant (100=total damage; 0=no damage) ECHCG ([9]; Post-Emergence at 62.5 g/ha): 70; damage to plant (100=total damage; 0=no damage) ECHCG ([9]; Post-Emergence at 250 g/ha): 80; damage to plant (100=total damage to plant; 0=no damage to plant), ZEAMX ([10]; rate 15): 0; damage to plant (100=total damage to plant; 0=no damage to plant), ZEAMX ([10]; rate 30): 0; damage to plant (100=total damage to plant; 0=no damage to plant), ZEAMX ([10]; rate 60): 0; damage to plant (100=total damage to plant; 0=no damage to plant), ZEAMX ([10]; rate 130): 0; damage to plant (100=total damage to plant; 0=no damage to plant), ZEAMX ([10]; rate 250): 0; damage to plant (100=total damage to plant; 0=no damage to plant), ZEAMX ([10]; rate 500): 0; damage to plant (100=total damage; 0=no damage) SETFA ([11]; Pre-Emergence at 15.625 g/ha): 80; damage to plant (100=total damage; 0=no damage) SETFA ([11]; Pre-Emergence at 62.5 g/ha): 90; damage to plant (100=total damage; 0=no damage) SETFA ([11]; Pre-Emergence at 250 g/ha): 90"
CN1CC(c2cc(C(F)(F)F)n(C)n2)C(C(=O)Nc2cccc(F)n2)C1=O (racemic) [Compound 24],0,0,0,0,30,80,0,0,0,0,0,10,0,0,0,20,70,80,0,0,"TRZAW damage rating (100=total damage to plant; 0=no damage to plant) [6, 14]: 0; damage to plant (100=total damage; 0=no damage) IPOHE ([7]; Post-Emergence at 15.625 g/ha): 10; damage to plant (100=total damage; 0=no damage) IPOHE ([7]; Post-Emergence at 62.5 g/ha): 20; damage to plant (100=total damage; 0=no damage) IPOHE ([7]; Post-Emergence at 250 g/ha): 50; damage to plant (100=total damage; 0=no damage) ABUTH ([8]; Post-Emergence at 15.625 g/ha): 0; damage to plant (100=total damage; 0=no damage) ABUTH ([8]; Post-Emergence at 62.5 g/ha): 0; damage to plant (100=total damage; 0=no damage) ABUTH ([8]; Post-Emergence at 250 g/ha): 0; damage to plant (100=total damage; 0=no damage) ECHCG ([9]; Post-Emergence at 15.625 g/ha): 40; damage to plant (100=total damage; 0=no damage) ECHCG ([9]; Post-Emergence at 62.5 g/ha): 80; damage to plant (100=total damage; 0=no damage) ECHCG ([9]; Post-Emergence at 250 g/ha): 80; damage to plant (100=total damage to plant; 0=no damage to plant), ZEAMX ([10]; rate 15): 0; damage to plant (100=total damage to plant; 0=no damage to plant), ZEAMX ([10]; rate 30): 0; damage to plant (100=total damage to plant; 0=no damage to plant), ZEAMX ([10]; rate 60): 0; damage to plant (100=total damage to plant; 0=no damage to plant), ZEAMX ([10]; rate 130): 0; damage to plant (100=total damage to plant; 0=no damage to plant), ZEAMX ([10]; rate 250): 0; damage to plant (100=total damage to plant; 0=no damage to plant), ZEAMX ([10]; rate 500): 0; damage to plant (100=total damage; 0=no damage) SETFA ([11]; Pre-Emergence at 15.625 g/ha): 70; damage to plant (100=total damage; 0=no damage) SETFA ([11]; Pre-Emergence at 62.5 g/ha): 90; damage to plant (100=total damage; 0=no damage) SETFA ([11]; Pre-Emergence at 250 g/ha): 90"
